Measured values reported in patent publication US20060094783A1 (Tava Pharmaceutical Industries, Ltd., priority 1990, published 2006).
Structures can show the parent of a compound that is named as a salt.

Columns and labels:
[1] = test system: haloperidol-induced catalepsy in mice; assay: Reversal of haloperidol-induced catalepsy in mice; type: in vivo, mouse; conditions: for Score + SE: haloperidol 6 mg/kg s.c., max score 12; for % of control: score vs saline control
Method: All drugs were administered i.p. in a volume of 0.2 mL. Two hours later, haloperidol was injected s.c. at a dose of 6 mg/kg in a volume of 0.1-0.2 mL. Motor coordination tests were made at 3 hours after giving haloperidol, that is, 5 hours after administering the presumed protective drugs.
Motor coordination tests and rigidity were quantified according to three different parameters: (a) ability to walk the length of a horizontal rod, 80 cm-long; (b) ability to climb down, face down, a vertical rod, 80 cm-long; (c) duration of immobility in an unnatural sitting posture whereby the abdomen of the mouse is pressed against a “wall.” Full performance as in haloperidol-untreated mice is given the score of 4 in each test, or a total of 12 in all tests. Poor performance is given a score from 1 to 3.

[2] = test system: α-MpT-induced hypokinesia in rats; assay: Reversal of α-MpT-induced hypokinesia in rats; type: in vivo, rat; conditions: for Score + SE (total motor activity, 10 hours): α-MpT 100 mg/kg i.p.
Method: The drug α-MpT is assumed to inhibit the formation of L-DOPA from tyrosine, and consequently the formation of dopamine itself. Lack of CNS dopamine is expressed as hypoactivity. […] Two hours later they received i.p. α-MpT at a dose of 100 mg/kg in 0.3-0.5 mL. Controls received saline. Following this, motor activity was recorded in a computerized activity cage for the duration of 10 hours.

[3] = molecular target: T1, MAO-B (Rattus norvegicus, UniProt P19643); assay: Inhibition of MAO activity in vivo, acute treatment, MAO-B; design: in a rat brain preparation of MAO; host or cells: rat brain preparation
T1 sequence (P19643 1-520): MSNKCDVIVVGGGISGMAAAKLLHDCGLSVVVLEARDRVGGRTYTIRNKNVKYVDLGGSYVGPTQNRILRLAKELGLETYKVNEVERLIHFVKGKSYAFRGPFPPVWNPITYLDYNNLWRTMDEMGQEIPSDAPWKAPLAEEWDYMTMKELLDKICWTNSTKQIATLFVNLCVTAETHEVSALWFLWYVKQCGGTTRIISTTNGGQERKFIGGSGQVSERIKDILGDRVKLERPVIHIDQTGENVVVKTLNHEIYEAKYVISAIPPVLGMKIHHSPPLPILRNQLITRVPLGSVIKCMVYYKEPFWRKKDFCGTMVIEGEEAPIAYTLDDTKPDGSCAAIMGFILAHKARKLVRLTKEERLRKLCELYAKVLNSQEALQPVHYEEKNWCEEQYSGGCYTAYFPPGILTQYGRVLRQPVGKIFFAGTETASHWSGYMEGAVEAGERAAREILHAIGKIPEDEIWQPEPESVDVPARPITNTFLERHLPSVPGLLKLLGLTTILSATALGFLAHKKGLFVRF

[4] = test system: cardiovascular effects in animals; conditions: cited from earlier work
[5] = molecular target: T2, MAO-A (Rattus norvegicus, UniProt P21396); assay: Inhibition of MAO activity in vivo, acute treatment, MAO-A; conditions: rat
T2 construct: MAO activity determined in brain and liver; from tissue; host or cells: brain and liver of male Sprague-Dawley-derived rats
T2 sequence (P21396 1-526): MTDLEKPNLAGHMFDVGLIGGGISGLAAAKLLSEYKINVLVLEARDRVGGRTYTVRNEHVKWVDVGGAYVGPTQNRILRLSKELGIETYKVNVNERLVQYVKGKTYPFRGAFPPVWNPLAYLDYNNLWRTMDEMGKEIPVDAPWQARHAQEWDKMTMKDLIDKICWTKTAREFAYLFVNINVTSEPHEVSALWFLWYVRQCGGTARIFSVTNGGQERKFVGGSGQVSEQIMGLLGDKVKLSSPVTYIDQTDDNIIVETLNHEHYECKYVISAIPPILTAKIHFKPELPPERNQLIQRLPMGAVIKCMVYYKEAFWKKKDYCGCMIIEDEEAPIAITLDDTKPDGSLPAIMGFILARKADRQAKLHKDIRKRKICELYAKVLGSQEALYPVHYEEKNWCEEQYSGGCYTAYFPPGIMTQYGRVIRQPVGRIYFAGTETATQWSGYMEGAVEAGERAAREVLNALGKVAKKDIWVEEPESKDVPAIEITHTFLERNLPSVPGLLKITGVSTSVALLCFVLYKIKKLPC

[6] = test system: maximal electroshock seizures in rats; assay: Maximal electroshock test (MES test) in rats; type: in vivo, rat; conditions: p.o., 50 mg/kg
Text: The MES test is a classical model to indicate efficacy for partial and generalized seizures in humans. The agents' mechanism of action is via their ability to prevent the spread of seizures. Some agents, however, that prevent seizure spread have the side effect of lowering seizure threshold. These agents therefore have both proconvulsive and anticonvulsive side effects.

[7] = test system: guinea-pig ileum; assay: Antagonism of bethanechol-induced (fixed dose) contractions of guinea-pig ileum; conditions: bethanechol 0.8 μM
[8] = test system: neonatal rat cerebellum cell cultures; conditions: 0.01 μM + NMDA
Method: Procedures: cultures of mechanically dissociated neonatal rat cerebellum. […] The cerebella are then dissociated after 20-25 passages through a sterile 13 gauge, 10 cm long stainless steel needle attached to a 5 ml syringe with an inserted 45 μm pore size nylon sieve. The dissociated cells are centrifuged at 200 g for 5 minutes, the supernatant discarded and the cells resuspended in enriched medium. The cell viability is determined by the trypan blue exclusion test. […] After 4 days in culture, the media are replaced with media containing the desired test compounds. Experiments are done in duplicate and repeated 2 or 3 times. […] Nerve cell survival is evaluated by phase contrast microscopy and trypan blue staining after 24 h.
Values, expressed as the percent of untreated controls, represent the average of 2 experiments run in duplicate for culture experiments, and the mean±SEM of 4 animals for ischemia. The percent protection value is the effect of the test compound after subtraction of the solvent effect.

[9] = Appearance of PAI salts under destructive conditions; type: physicochemical
Method: Comparative stability studies were carried out under sets of several accelerating conditions: I) heating at 80° C. for 72, 96 or 144 hours; and II) reflux in isopropanol for 30 hours. The degradation products developed were measured by HPLC and confirmed by TLC. The results are presented in Table 9 with the relative retention time (relative to the PAI peak; RRT) as an area percentage relative to ? integrated peak area.
The salts were submitted to visual inspection of color an form.

[10] = Physicochemical properties of PAI salts; conditions: for pH: 1% aqueous solution of the PAI salt
Method: The melting range was measured with an automatic apparatus (Mettler FP 80) and thermo-gravimetric analysis was performed on a Mettler TA 3000 system at a rate of 10° C./min in the applicable range. […] The pH was measured in a 1% aqueous solution of the PAI salts.

Compound: C#CCNC1CCc2ccccc21 (racemic) [Rac PAI Mesylate]
- Score + SE ([1]; 3.0 mg/kg i.p. (free base)): 5.9 ± 0.7
- % of control ([1]; 3.0 mg/kg i.p.): 49%
- protection against haloperidol (in words) ([1]; 5 mg/kg): not active
- Score + SE ([1]; 5.0 mg/kg i.p. (free base)): 6.4 ± 0.4
- % of control ([1]; 5.0 mg/kg i.p.): 53%
- Score + SE ([1]; 10 mg/kg i.p. (free base)): 9.2 ± 0.6
- % of control ([1]; 10 mg/kg i.p.): 77%
- Score + SE ([1]; 15 mg/kg i.p. (free base)): 8.8 ± 0.8
- % of control ([1]; 15 mg/kg i.p.): 73%
- restoration of motor activity (in words) ([2]; 2 mg/kg): not active
- % of control ([2]; 2 mg/kg i.p., vs saline control): 57%
- Score + SE (total motor activity, 10 hours) ([2]; 2 mg/kg i.p.): 9,035 ± 829
- Score + SE (total motor activity, 10 hours) ([2]; 5 mg/kg i.p.): 10,926 ± 820
- Score + SE (total motor activity, 10 hours) ([2]; […] i.p.): 9,698 ± 557

Compound: C#CCNC1CCc2ccccc21 (racemic) [Rac, N-propargyl-1-aminoindan]
- IC-50 MAO-B ([3]; I.P., brain, 1 h after dose): 0.22 mg/kg
- IC-50 MAO-B ([3]; I.P., liver, 1 h after dose): 0.11 mg/kg
- IC-50 MAO-B ([3]; P.O., liver, 2 h after dose): 0.09 mg/kg
- blood pressure ([4]; comparative animal tests): does not increase blood pressure
- tachycardia ([4]; comparative animal tests): no significant tachycardia
- IC-50 MAO-A ([5]; I.P., liver, 1 h after dose): 5 mg/kg
- IC-50 MAO-A ([5]; P.O., brain, 2 h after dose): >5 mg/kg
- IC-50 MAO-A ([5]; P.O., liver, 2 h after dose): >5 mg/kg

Compound: C#CCNC1CCc2ccccc21.Cl (racemic) [racemic PAI.HCl, Racemic N-propargyl-1-aminoindan hydrochloride]
- potentiation of the cardiovascular effects of tyramine ([4]; Finberg et al.): does not potentiate

Compound: C#CCN[C@@H]1CCc2ccccc21.Cl [(R)-PAI HCl, R-(+)-N-Propargyl-1-aminoindan hydrochloride]
- animals protected from seizures [6]: three out of four
- Percent relaxation ([7]; PAI concentration 20 μM): 25
- Percent relaxation ([7]; PAI concentration 60 μM): 25-50
- Percent relaxation ([7]; PAI concentration 100 μM): 50-70
- Percent relaxation ([7]; PAI concentration 300 μM): 100

Compound: NCCCNCCCCNCCCN [Spermine, reference compound]
- Surviving Cells (percent of untreated controls) [8]: 75
- Percent Protection ([8]; after subtraction of solvent effect): 65

Compound: Cl [chloride]
- appearance: color ([9]; 80° C./72 h): white
- appearance: form ([9]; 80° C./72 h): powder
- appearance: color ([9]; 80° C./144 h): white
- appearance: form ([9]; 80° C./144 h): powder
- appearance: color ([9]; reflux in iPrOH/30 h): off white
- appearance: form ([9]; reflux in iPrOH/30 h): powder

Compound: C#CCN[C@@H]1CCc2ccccc21.CCS(=O)(=O)O [esylate]
- appearance: color ([9]; 80° C./72 h): brownish
- appearance: form ([9]; 80° C./72 h): melted
- appearance: color ([9]; 80° C./144 h): dark brown
- appearance: form ([9]; 80° C./144 h): melted
- appearance: color ([9]; reflux in iPrOH/30 h): dark brown
- appearance: form ([9]; reflux in iPrOH/30 h): melted
- pH [10]: 2.4

Compound: C#CCN[C@@H]1CCc2ccccc21.C#CCN[C@@H]1CCc2ccccc21.O=S(=O)(O)O [sulphate]
- appearance: color ([9]; 80° C./72 h): off white
- appearance: form ([9]; 80° C./72 h): powder
- appearance: color ([9]; 80° C./144 h): off white
- appearance: form ([9]; 80° C./144 h): powder
- appearance: color ([9]; reflux in iPrOH/30 h): brown
- appearance: form ([9]; reflux in iPrOH/30 h): powder
- pH [10]: 3.9
- % Wt. loss ([10]; thermo-gravimetric analysis, 10° C./min): 3.2%

Compound: maleate
- appearance: color ([9]; 80° C./72 h): brown
- appearance: form ([9]; 80° C./72 h): melted
- appearance: color ([9]; 80° C./96 h): brown
- appearance: color ([9]; reflux in iPrOH/30 h): brown
- appearance: form ([9]; reflux in iPrOH/30 h): melted

Compound: phosphate
- appearance: color ([9]; 80° C./72 h): brownish
- appearance: form ([9]; 80° C./72 h): powder
- appearance: color ([9]; 80° C./144 h): brown
- appearance: form ([9]; 80° C./144 h): powder
- appearance: color ([9]; reflux in iPrOH/30 h): brown
- appearance: form ([9]; reflux in iPrOH/30 h): powder
- pH [10]: 7.0
